{"source": "PubChem BioAssay AID1259409", "about": "(Chemical Carcinogenesis Research Information System (CCRIS), 2018)", "origin": "cited, not measured here", "system": "rodent chemically induced tumor inhibition, incidence and multiplicity", "test": "CCRIS tumor inhibitor studies"}
{"smiles": "CC1=C(/C=C/C(C)=C/C=C/C(C)=C/C(=O)O)C(C)(C)CCC1", "values": [{"measurement": "tumour outcome (control, treated, inhibition, significance)", "setting": "Carcinogen: 7,12-DIMETHYLBENZ[A]ANTHRACENE, 57-97-6, Dose [Inhibitor]: 68 NMOL IN 0.2 ML ACETONE ONCE 1 HR BEFORE APPLICATION OF CARCINOGEN (STUDY DURATION: 21 WK), Route [Inhibitor]: DERMAL, Species: MOUSE, Strain/Sex: CD-1/FEMALE, Target Tissue: Type of Lesion: SKIN: PAPILLOMA, Dose [Carcinogen]: 0.2 UMOL IN 0.2 ML ACETONE ONCE, Promoter: 12-O-TETRADECANOYLPHORBOL-13-ACETATE, 16561-29-8", "result": "95%, 92%, 3%, not significant"}, {"measurement": "tumour outcome (control, treated, inhibition, significance)", "setting": "Carcinogen: 7,12-DIMETHYLBENZ[A]ANTHRACENE, 57-97-6, Dose [Inhibitor]: 170 NMOL IN 0.2 ML ACETONE 1 HR PRIOR TO EACH PROMOTER DOSE FOR 12 WK (STUDY DURATION: 14 WK), Route [Inhibitor]: DERMAL, Species: MOUSE, Strain/Sex: SENCAR/FEMALE, Target Tissue: Type of Lesion: SKIN: PAPILLOMA, Dose [Carcinogen]: 200 NMOL IN 0.2 ML ACETONE ONCE, Promoter: 12-O-TETRADECANOYLPHORBOL-13-ACETATE, 16561-29-8", "result": "100%, 87%, 13%, not calculated"}, {"measurement": "tumour outcome (control, treated, inhibition, significance)", "setting": "Carcinogen: 7,12-DIMETHYLBENZ[A]ANTHRACENE, 57-97-6, Dose [Inhibitor]: 170 NMOL IN 0.2 ML ACETONE 1 HR PRIOR TO EACH PROMOTER DOSE FOR 20 WK (STUDY DURATION: 22 WK), Route [Inhibitor]: DERMAL, Species: MOUSE, Strain/Sex: CD-1/FEMALE, Target Tissue: Type of Lesion: SKIN: PAPILLOMA, Dose [Carcinogen]: 200 NMOL IN 0.2 ML ACETONE ONCE, Promoter: 12-O-TETRADECANOYLPHORBOL-13-ACETATE, 16561-29-8", "result": "94%, 63%, 33%, not calculated"}, {"measurement": "tumour outcome (control, treated, inhibition, significance)", "setting": "Carcinogen: DIETHYLNITROSAMINE, 55-18-5, Dose [Inhibitor]: 0, 10000 IU/KG IN CORN OIL FOR DURATION OF STUDY BEGINNING 7 D PRIOR TO FIRST CARCINOGEN DOSE (STUDY DURATION: 6 MO), Route [Inhibitor]: GAVAGE, Species: RAT, Strain/Sex: BD6/FEMALE, Target Tissue: Type of Lesion: ESOPHAGUS: TUMOR, Dose [Carcinogen]: 80 MG/KG BW 1/WK FOR 8 WK, Promoter: NONE USED", "result": "20%, 13%, 35%, not significant"}, {"measurement": "tumour outcome (control, treated, inhibition, significance)", "setting": "Carcinogen: DIETHYLNITROSAMINE, 55-18-5, Dose [Inhibitor]: 0, 10000 IU/KG IN CORN OIL FOR DURATION OF STUDY BEGINNING 7 D PRIOR TO FIRST CARCINOGEN DOSE (STUDY DURATION: 6 MO), Route [Inhibitor]: GAVAGE, Species: RAT, Strain/Sex: BD6/FEMALE, Target Tissue: Type of Lesion: LIVER: TUMOR, Dose [Carcinogen]: 80 MG/KG BW 1/WK FOR 8 WK, Promoter: NONE USED", "result": "83%, 91%, -10%, not significant"}, {"measurement": "tumour outcome (control, treated, inhibition, significance)", "setting": "Carcinogen: DIETHYLNITROSAMINE, 55-18-5, Dose [Inhibitor]: 0, 20000 IU/KG IN CORN OIL FOR DURATION OF STUDY BEGINNING 7 D PRIOR TO FIRST CARCINOGEN DOSE (STUDY DURATION: 6 MO), Route [Inhibitor]: GAVAGE, Species: RAT, Strain/Sex: BD6/FEMALE, Target Tissue: Type of Lesion: ESOPHAGUS: TUMOR, Dose [Carcinogen]: 80 MG/KG BW 1/WK FOR 8 WK, Promoter: NONE USED", "result": "30%, 13%, 57%, not significant"}, {"measurement": "tumour outcome (control, treated, inhibition, significance)", "setting": "Carcinogen: DIETHYLNITROSAMINE, 55-18-5, Dose [Inhibitor]: 0, 20000 IU/KG IN CORN OIL FOR DURATION OF STUDY BEGINNING 7 D PRIOR TO FIRST CARCINOGEN DOSE (STUDY DURATION: 6 MO), Route [Inhibitor]: GAVAGE, Species: RAT, Strain/Sex: BD6/FEMALE, Target Tissue: Type of Lesion: LIVER: TUMOR, Dose [Carcinogen]: 80 MG/KG BW 1/WK FOR 8 WK, Promoter: NONE USED", "result": "85%, 93%, -9%, not significant"}, {"measurement": "tumour outcome (control, treated, inhibition, significance)", "setting": "Carcinogen: N-METHYL-N'-NITRO-N-NITROSOGUANIDINE, 70-25-7, Dose [Inhibitor]: 0, 0.75 MG/KG BW 1/2 D FOR 26 WK BEGINNING POST CARCINOGEN TREATMENT (STUDY DURATION: 52 WK), Route [Inhibitor]: SUBCUTANEOUS, Species: RAT, Strain/Sex: WISTAR/MALE, Target Tissue: Type of Lesion: STOMACH: ADENOCARCINOMA, Dose [Carcinogen]: 25 UG/ML IN DRINKING WATER FOR 25 WK, Promoter: SODIUM CHLORIDE, 7647-14-5", "result": "17/20 (85%), 8/20 (40%), 53% p<0.01"}, {"measurement": "tumour outcome (control, treated, inhibition, significance)", "setting": "Carcinogen: N-METHYL-N'-NITRO-N-NITROSOGUANIDINE, 70-25-7, Dose [Inhibitor]: 0, 1.5 MG/KG BW 1/2 D FOR 26 WK BEGINNING POST CARCINOGEN TREATMENT (STUDY DURATION: 52 WK), Route [Inhibitor]: SUBCUTANEOUS, Species: RAT, Strain/Sex: WISTAR/MALE, Target Tissue: Type of Lesion: STOMACH: ADENOCARCINOMA, Dose [Carcinogen]: 25 UG/ML IN DRINKING WATER FOR 25 WK, Promoter: SODIUM CHLORIDE, 7647-14-5", "result": "17/20 (85%), 7/20 (35%), 59%, p<0.01"}, {"measurement": "tumour outcome (control, treated, inhibition, significance)", "setting": "Carcinogen: N-NITROSO-N-METHYLUREA, 684-93-5, Dose [Inhibitor]: 0, 60 MG/KG OF DIET FOR 3 MO BEGINNING 1 WK POST CARCINOGEN DOSE (STUDY DURATION: 100 D), Route [Inhibitor]: ORAL, Species: RAT, Strain/Sex: SPRAGUE-DAWLEY/FEMALE, Target Tissue: Type of Lesion: MAMMARY GLAND: TUMOR, Dose [Carcinogen]: 50 MG/KG BW ONCE, Promoter: NONE USED", "result": "100%, 92%, 8%, not significant"}, {"measurement": "tumour outcome (control, treated, inhibition, significance)", "setting": "Carcinogen: N-NITROSO-N-METHYLUREA, 684-93-5, Dose [Inhibitor]: 0, 120 MG/KG OF DIET FOR 13 MO BEGINNING 1 WK POST CARCINOGEN DOSE (STUDY DURATION: 100 D), Route [Inhibitor]: ORAL, Species: RAT, Strain/Sex: SPRAGUE-DAWLEY/FEMALE, Target Tissue: Type of Lesion: MAMMARY GLAND: TUMOR, Dose [Carcinogen]: 50 MG/KG BW ONCE, Promoter: NONE USED", "result": "100%, 83%, 17%, not significant"}]}
